Columns and labels:
[1] = Dissolution of barium sulfate suspension (GFAAS); conditions: for BaSO4 dissolved: 30 minutes
Protocol: First, a suspension of BaSO4 in pH 8 NaHCO3 was formed by combining Ba(NO3)2 (4.53 mM) with excess Na2SO4 (13.48 mM), simulating the mixing of incompatible waters that produces BaSO4 scale in petroleum operations. The resulting BaSO4 suspension was treated with ligand (5 mM), and the amount of dissolved Ba^2+ was measured by GFAAS.
More specifically. BaSO4 dissolution experiments at pH 8 were performed in NaHCO3 (1 M, pH=7.9-8.0); dissolution studies at pH 11 were performed in Na2CO3 (1 M, pH adjusted to 10.98 using concentrated HCl). […] The concentration of the DOTA stock solution was calculated from the mass of the ligand used (255.5 mg). A solution of Na2SO4 (293 mM) was prepared in water. The barium source for this experiment was an ICP standard solution of Ba(NO3)2 (72.99 mM; 10023 μg/mL) in 2% v/v HNO3.
Dissolution studies were carried out in 2 mL borosilicate vials equipped with identical magnetic stir bars (6.4×3 mm). Each BaSO4 suspension was prepared independently by mixing Ba(NO3)2 and Na2SO4 in 1 M NaHCO3 or Na2CO3 to give final concentrations of 4.53 mM (621,426 μg/L) and 13.48 mM, respectively. Dissolution was initiated by the addition of an aliquot of ligand (5 mM final concentration, 1.1 equiv with respect to Ba^2+) to each suspension. Controls (pH 8) received an aliquot of water instead of ligand. The suspensions were stirred at room temperature (22±1° C.) at a rate of 550 RPM. At time points of 5 min (pH 11 only), 10 min, 20 min, and 30 min, the suspensions were filtered through nylon syringe filters (either 0.2 μm or 0.22 μm), and the filtrates were analyzed as described below. The dissolution experiments were performed in triplicate at every time point for each ligand except DOTA, for which 6 replicates were run for 20 min and 30 min time points at pH 8.
The filtered samples were diluted 6565-fold (65×101) with water and analyzed for barium content by GFAAS using the furnace method and instrument parameters discussed earlier above. Standards containing both ligand and barium at the same concentrations employed in the dissolution studies were prepared in either NaHCO3 (pH 8) or Na2CO3 (pH 11); water was substituted for Na2SO4. […] Water was used as the diluent. Following calibration, each sample was analyzed in triplicate and averaged. After the analysis of every three samples, a single measurement of water was made to ensure that there was no carryover of barium. After every three (pH 11) or six (pH 8) samples were analyzed, an independently-prepared Ba-L standard was analyzed a maximum of two times as a quality control check. If the measurement was not within ±10% of the known concentration of barium, the instrument was re-calibrated and the data between the failed calibration check and the previous calibration check was excluded. Data from each time point were averaged and the results are reported as the percentage of barium dissolved. The errors given correspond to 1 standard deviation.

[2] = Protonation constants of the ligands by pH-potentiometric titration; assay type: physicochemical; conditions: for log Ka1 / log Ka2 / log Ka3 / log Ka4: pH-potentiometry, 25° C., I = 0.1M KCl; for occurrence of the fully deprotonated ligand in solution: ligand speciation versus pH
Protocol: Potentiometric measurements were carried out using a titrator equipped with a combination electrode and an exchange unit with an automatic burette (10 mL). The titration vessel was fitted with a removable glass cell (˜70 mL) and was thermostated at 25° C. using a circulating water bath. CO2 was excluded from the vessel prior to and during the titrations using a small positive pressure of Ar that was passed through a solution of 30 wt % KOH. Carbonate-free KOH (˜0.1 M) was prepared by dissolving KOH pellets (semiconductor grade, 99.99% trace metals basis) in freshly boiled water (≥18 MΩ-cm) and was standardized by potentiometric titration against potassium hydrogen phthalate. Hydrochloric acid (0.1 M) was standardized against freshly prepared KOH. Titration solutions were maintained at a constant ionic strength of 0.1 M using KCl (≥99.5%) and were equilibrated for 15 minutes prior to the addition of titrant. Before every titration, the electrode was calibrated in terms of hydrogen ion concentration by titrating a solution of standardized HCl (5 mM) containing supporting electrolyte (95 mM) with standardized KOH (2 mL). Data within the pH ranges of 2.5-3.2 and 10.8-11.2 were analyzed using software to obtain the standard electrode potential (E0) and slope factor. Owing to the sharp rise in pH at the titration endpoint (pH 3.2-10.8), data obtained in this region are subject to significant error and were therefore excluded from the calibration analysis. A pKw value of 13.78 was taken from the literature (Baes, C. F.; Mesmer, R. E. The Hydrolysis of Cations; Wiley: New York, 1976).
Stock solutions of macropa and macropaquin were prepared in H2O. […] The exact ligand concentrations were determined from the potentiometric titration curves with KOH. Protonation equilibria of macropa^2− and macropaquin^2− were determined by adding standardized KOH to a solution (20 mL) containing ligand (˜0.02 mmol), 0.1 M HCl (0.1 mmol), and 1 M KCl (1.9 mmol). The titration method employed a 0.1 mV/min drift limit with a maximum wait time of 90 sec between addition of base and measurement. At least 70 data points were collected over the pH range of 2.5-10.5 (macropa) or 2.5-11.3 (macropaquin). The protonation constants, defined in Eq. 1, were calculated from the average of at least 4 independent titrations using the appropriate software.
Both ligand (L) and proton concentrations were admitted as refineable parameters. The errors given for the protonation constants correspond to one standard deviation. The protonation constants measured for macropa^2− were consistent with those previously reported (Roca-Sabio et al., 2009, supra); log Ka5 was not able to be determined under the conditions employed here. Protonation equilibria of macroquin-SO3^4− were determined by titrating standardized HCl (˜5.19 mL) into a solution (62.5 mL) containing ligand (˜0.013 mmol, 10.4 mg), KOH (0.25 mmol), and 1 M KCl (6 mmol). The same titration method was employed as described above for the other two ligands. At least 90 data points over the pH range of 4.0-10.8 were included in the refinement; no additional protonation constants could be refined when data from pH 2.5-3.99 were included. The protonation constants were calculated from the average of 15 independent titrations.

Compound | BaSO4 dissolved ([1]; pH 8, RT, 5 mM ligand) | overall basicity of the ligand, sum of log Ka values [2] | log Ka1 [2] | log Ka2 [2] | log Ka3 [2] | log Ka4 [2] | occurrence of the fully deprotonated ligand in solution [2] | also measured
O=C(O)CN1CCN(CC(=O)O)CCN(CC(=O)O)CCN(CC(=O)O)CC1 [DOTA, reference compound] | 40% |  |  |  |  |  |  | BaSO4 dissolution ([1]; pH 11, 30 min): 75%
O=C(O)c1cccc(CN2CCOCCOCCN(Cc3cccc(C(=O)O)n3)CCOCCOCC2)n1 [macropa, 6,6-((1,4,10,13-tetraoxa-7,16-diazacyclooctadecane-7,16-diyl)bis(methylene))dipicolinic acid] | complete dissolution | 19.99 | 7.41 | 6.899 | 3.23(1) | 2.45(5) |  | BaSO4 solubilized ([1]; pH 8, RT, 5 mM ligand, 10 minutes): 78%; BaSO4 solubilized ([1]; pH 11, 5 min): > 95%; fraction of ligand fully deprotonated (L^2−) ([2]; pH 7.4): 43%; log Ka1 ([2]; listed as macropa^2−): 7.41(1); log Ka2 ([2]; listed as macropa^2−): 6.899(3)
O=C(O)c1cccc(CN2CCOCCOCCN(Cc3ccc4cccc(O)c4n3)CCOCCOCC2)n1 [macropaquin, 6-((16-((8-hydroxyquinolin-2-yl)methyl)-1,4,10,13-tetraoxa-7,16-diazacyclooctadecan-7-yl)methyl)picolinic acid] | 95% | 27.69 | 10.33 | 7.15 | 6.97 | 3.24(4) | do not exist in solution below pH 8 | fraction of ligand as monoprotonated species HL^− ([2]; pH 7.4): 56%; log Ka1 ([2]; listed as macropaquin^2−): 10.33(4); log Ka2 ([2]; listed as macropaquin^2−): 7.15(3); log Ka3 ([2]; listed as macropaquin^2−): 6.97(2)
O=S(=O)(O)c1ccc(O)c2nc(CN3CCOCCOCCN(Cc4ccc5c(S(=O)(=O)O)ccc(O)c5n4)CCOCCOCC3)ccc12 [macroquin-SO3, 2,2′-((1,4,10,13-tetraoxa-7,16-diazacyclooctadecane-7,16-diyl)bis(methylene))bis(8-hydroxyquinoline-5-sulfonic acid)] |  | 32.14 | 9.34 | 9.43 | 6.75 | 6.62 | do not exist in solution below pH 8 | fraction of ligand present as H2L^2− ([2]; pH 7.4): 78%; log Ka1 ([2]; listed as macroquin-SO3^4−): 9.34(4); log Ka2 ([2]; listed as macroquin-SO3^4−): 9.43(1); log Ka3 ([2]; listed as macroquin-SO3^4−): 6.75(4); log Ka4 ([2]; listed as macroquin-SO3^4−): 6.62(4)

Source: US11708283B2, “Metal-chelating compositions and their use in methods of removing or inhibiting barium scale” (CORNELL UNIVERSITY, priority 2018, dated 2023)
